These results are taken from the NIST ThermoML archive (doi:10.1016/j.tca.2013.09.023).

± gives the expanded uncertainty stated by the source.

For data set [1] the following is noted: DTA; for Normal melting temperature: Crystal.
Data set [2] in a line: Molar enthalpy of transition or fusion. The settings on record: DSC.

Take `CCCCn1cc[n+](C)c1.[Cl-]` [1-butyl-3-methylimidazolium chloride]: the Triple point temperature in data set [1] (Crystal 2) was found to be 303.15 ± 2 K. For the same compound, the Normal melting temperature in data set [1] worked out at 74.00 ± 2 °C. The figures for the “Molar enthalpy of transition or fusion” value in data set [2] (Crystal 2) and in data set [2] (Crystal) were 0.645 ± 0.143 kcal/mol and 4.3 ± 0.239 kcal/mol, respectively.

Consider `CCCCn1cc[n+](C)c1.[I-]` [1-butyl-3-methylimidazolium iodide], for which the Glass transition temperature in data set [1] (Glass) was -70.00 ± 5 °C.

In the case of `CCCCn1cc[n+](C)c1.[Br-]` [1-butyl-3-methylimidazolium bromide], in data set [1], the Normal melting temperature was found to be 78.00 ± 2 °C. Also, the “Molar enthalpy of transition or fusion” value in data set [2] (Crystal) was found to be 6.93 ± 0.239 kcal/mol.
